{"source": "PubChem BioAssay AID2060908", "about": "(Molecular Pharmacology Branch, DTP, NCI, 2025);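 also: spheroids exposed to compounds for 7 days before viability read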", "tested_on": "186277-243-T-J2-PDC complex spheroids, viability", "assay": "Anticancer human tumor 186277-243-T-J2-PDC patient-derived colon adenocarcinoma cell line growth inhibition [RAS]", "conditions": "for IC50: curve of first compound; for viability, T/C: stronger effect = lower value", "in_short": "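Multi-cell-type spheroids: tumor cells plus HUVEC endothelial cells and mesenchymal stem cells. RAS-pathway inhibitors were combined with targeted agents, each dosed in half-log steps down from clinical Cmax, or from 10 microM when Cmax was unknown.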"}
{"smiles": "C=CC(=O)Nc1cc(Nc2nccc(-c3cn(C)c4ccccc34)n2)c(OC)cc1N(C)CCN(C)C", "note": "+ CCn1c(-c2cccnc2C(C)OC)c2c3cc(ccc31)N1CCOC(CC(NC(=O)C(C(C)C)N(C)C(=O)C3(F)CCN(C(=O)C#CC(C)(C)N(C)C)CC3)C(=O)N3CCCC(N3)C(=O)OCC(C)(C)C2)C1", "values": [{"measurement": "IC50", "setting": "second compound 0.000949 µM", "value": "> 1000", "unit": "nM"}, {"measurement": "IC50", "setting": "second compound 0.003 µM", "value": "> 1000", "unit": "nM"}, {"measurement": "IC50", "setting": "second compound 0.00949 µM", "value": "> 1000", "unit": "nM"}, {"measurement": "IC50", "setting": "second compound 0.03 µM", "value": "> 1000", "unit": "nM"}, {"measurement": "IC50", "setting": "second compound 0.0949 µM", "value": "> 1000", "unit": "nM"}, {"measurement": "IC50", "setting": "second compound 0.3 µM", "value": "> 1000", "unit": "nM"}, {"measurement": "viability, T/C", "setting": "second compound 0.000949 µM, first compound 0.00316 µM", "value": 94.2, "unit": "%"}, {"measurement": "viability, T/C", "setting": "second compound 0.000949 µM, first compound 0.01 µM", "value": 86.9, "unit": "%"}, {"measurement": "viability, T/C", "setting": "second compound 0.000949 µM, first compound 0.0316 µM", "value": 90.4, "unit": "%"}, {"measurement": "viability, T/C", "setting": "second compound 0.000949 µM, first compound 0.1 µM", "value": 83.8, "unit": "%"}, {"measurement": "viability, T/C", "setting": "second compound 0.000949 µM, first compound 0.316 µM", "value": 103, "unit": "%"}, {"measurement": "viability, T/C", "setting": "second compound 0.000949 µM, first compound 1 µM", "value": 95.7, "unit": "%"}, {"measurement": "viability, T/C", "setting": "second compound 0.003 µM, first compound 0.00316 µM", "value": 101, "unit": "%"}, {"measurement": "viability, T/C", "setting": "second compound 0.003 µM, first compound 0.01 µM", "value": 107, "unit": "%"}, {"measurement": "viability, T/C", "setting": "second compound 0.003 µM, first compound 0.0316 µM", "value": 107, "unit": "%"}, {"measurement": "viability, T/C", "setting": "second compound 0.003 µM, first compound 0.1 µM", "value": 109, "unit": "%"}, {"measurement": "viability, T/C", "setting": "second compound 0.003 µM, first compound 0.316 µM", "value": 110, "unit": "%"}, {"measurement": "viability, T/C", "setting": "second compound 0.003 µM, first compound 1 µM", "value": 91.6, "unit": "%"}, {"measurement": "viability, T/C", "setting": "second compound 0.00949 µM, first compound 0.00316 µM", "value": 116, "unit": "%"}, {"measurement": "viability, T/C", "setting": "second compound 0.00949 µM, first compound 0.01 µM", "value": 107, "unit": "%"}, {"measurement": "viability, T/C", "setting": "second compound 0.00949 µM, first compound 0.0316 µM", "value": 111, "unit": "%"}, {"measurement": "viability, T/C", "setting": "second compound 0.00949 µM, first compound 0.1 µM", "value": 104, "unit": "%"}, {"measurement": "viability, T/C", "setting": "second compound 0.00949 µM, first compound 0.316 µM", "value": 121, "unit": "%"}, {"measurement": "viability, T/C", "setting": "second compound 0.00949 µM, first compound 1 µM", "value": 81, "unit": "%"}, {"measurement": "viability, T/C", "setting": "second compound 0.03 µM, first compound 0.00316 µM", "value": 96.9, "unit": "%"}, {"measurement": "viability, T/C", "setting": "second compound 0.03 µM, first compound 0.01 µM", "value": 97.4, "unit": "%"}, {"measurement": "viability, T/C", "setting": "second compound 0.03 µM, first compound 0.0316 µM", "value": 106, "unit": "%"}, {"measurement": "viability, T/C", "setting": "second compound 0.03 µM, first compound 0.1 µM", "value": 91.8, "unit": "%"}, {"measurement": "viability, T/C", "setting": "second compound 0.03 µM, first compound 0.316 µM", "value": 101, "unit": "%"}, {"measurement": "viability, T/C", "setting": "second compound 0.03 µM, first compound 1 µM", "value": 82.2, "unit": "%"}, {"measurement": "viability, T/C", "setting": "second compound 0.0949 µM, first compound 0.00316 µM", "value": 109, "unit": "%"}, {"measurement": "viability, T/C", "setting": "second compound 0.0949 µM, first compound 0.01 µM", "value": 123, "unit": "%"}, {"measurement": "viability, T/C", "setting": "second compound 0.0949 µM, first compound 0.0316 µM", "value": 119, "unit": "%"}, {"measurement": "viability, T/C", "setting": "second compound 0.0949 µM, first compound 0.1 µM", "value": 123, "unit": "%"}, {"measurement": "viability, T/C", "setting": "second compound 0.0949 µM, first compound 0.316 µM", "value": 106, "unit": "%"}, {"measurement": "viability, T/C", "setting": "second compound 0.0949 µM, first compound 1 µM", "value": 78.3, "unit": "%"}, {"measurement": "viability, T/C", "setting": "second compound 0.3 µM, first compound 0.00316 µM", "value": 105, "unit": "%"}, {"measurement": "viability, T/C", "setting": "second compound 0.3 µM, first compound 0.01 µM", "value": 105, "unit": "%"}, {"measurement": "viability, T/C", "setting": "second compound 0.3 µM, first compound 0.0316 µM", "value": 109, "unit": "%"}, {"measurement": "viability, T/C", "setting": "second compound 0.3 µM, first compound 0.1 µM", "value": 103, "unit": "%"}, {"measurement": "viability, T/C", "setting": "second compound 0.3 µM, first compound 0.316 µM", "value": 82.8, "unit": "%"}, {"measurement": "viability, T/C", "setting": "second compound 0.3 µM, first compound 1 µM", "value": 73.1, "unit": "%"}]}
{"smiles": "CCc1c2c(nc3ccc(O)cc13)-c1cc3c(c(=O)n1C2)COC(=O)[C@]3(O)CC", "values": [{"measurement": "viability, T/C", "setting": "compound 0.00949 µM", "value": "71.8% [middle of 4 runs]"}, {"measurement": "viability, T/C", "setting": "compound 0.03 µM", "value": "47.5% [middle of 4 runs]"}, {"measurement": "viability, T/C", "setting": "compound 0.0949 µM", "value": "18.6% [middle of 4 runs]"}, {"measurement": "viability, T/C", "setting": "compound 0.3 µM", "value": "15.9% [middle of 4 runs]"}]}
{"smiles": "Cc1nc(N2CCC3(CC2)COC(C)C3N)c(CO)nc1Sc1ccnc(N)c1Cl", "note": "(stereo not drawn) + C#Cc1c(F)ccc2cc(O)cc(-c3ncc4c(N5CC6CCC(C5)N6)nc(OCC56CCCN5CC(F)C6)nc4c3F)c12", "values": [{"measurement": "IC50", "setting": "second compound 0.0316 µM", "value": 114, "unit": "nM"}, {"measurement": "IC50", "setting": "second compound 0.1 µM", "value": "< 31.6", "unit": "nM"}, {"measurement": "IC50", "setting": "second compound 0.316 µM", "value": "< 31.6", "unit": "nM"}, {"measurement": "IC50", "setting": "second compound 1 µM", "value": "< 31.6", "unit": "nM"}, {"measurement": "IC50", "setting": "second compound 3.16 µM", "value": "< 31.6", "unit": "nM"}, {"measurement": "IC50", "setting": "second compound 10 µM", "value": "< 31.6", "unit": "nM"}, {"measurement": "viability, T/C", "setting": "second compound 0.0316 µM, first compound 0.0316 µM", "value": 60.5, "unit": "%"}, {"measurement": "viability, T/C", "setting": "second compound 0.0316 µM, first compound 0.1 µM", "value": 53.8, "unit": "%"}, {"measurement": "viability, T/C", "setting": "second compound 0.0316 µM, first compound 0.316 µM", "value": 23.1, "unit": "%"}, {"measurement": "viability, T/C", "setting": "second compound 0.0316 µM, first compound 1 µM", "value": 9.38, "unit": "%"}, {"measurement": "viability, T/C", "setting": "second compound 0.0316 µM, first compound 3.16 µM", "value": 7.2, "unit": "%"}, {"measurement": "viability, T/C", "setting": "second compound 0.0316 µM, first compound 10 µM", "value": 5.04, "unit": "%"}, {"measurement": "viability, T/C", "setting": "second compound 0.1 µM, first compound 0.0316 µM", "value": 43.9, "unit": "%"}, {"measurement": "viability, T/C", "setting": "second compound 0.1 µM, first compound 0.1 µM", "value": 24.9, "unit": "%"}, {"measurement": "viability, T/C", "setting": "second compound 0.1 µM, first compound 0.316 µM", "value": 9.87, "unit": "%"}, {"measurement": "viability, T/C", "setting": "second compound 0.1 µM, first compound 1 µM", "value": 9.03, "unit": "%"}, {"measurement": "viability, T/C", "setting": "second compound 0.1 µM, first compound 3.16 µM", "value": 6.97, "unit": "%"}, {"measurement": "viability, T/C", "setting": "second compound 0.1 µM, first compound 10 µM", "value": 6.34, "unit": "%"}, {"measurement": "viability, T/C", "setting": "second compound 0.316 µM, first compound 0.0316 µM", "value": 14.7, "unit": "%"}, {"measurement": "viability, T/C", "setting": "second compound 0.316 µM, first compound 0.1 µM", "value": 13.1, "unit": "%"}, {"measurement": "viability, T/C", "setting": "second compound 0.316 µM, first compound 0.316 µM", "value": 9.91, "unit": "%"}, {"measurement": "viability, T/C", "setting": "second compound 0.316 µM, first compound 1 µM", "value": 8, "unit": "%"}, {"measurement": "viability, T/C", "setting": "second compound 0.316 µM, first compound 3.16 µM", "value": 6.18, "unit": "%"}, {"measurement": "viability, T/C", "setting": "second compound 0.316 µM, first compound 10 µM", "value": 5.92, "unit": "%"}, {"measurement": "viability, T/C", "setting": "second compound 1 µM, first compound 0.0316 µM", "value": 12.2, "unit": "%"}, {"measurement": "viability, T/C", "setting": "second compound 1 µM, first compound 0.1 µM", "value": 10.3, "unit": "%"}, {"measurement": "viability, T/C", "setting": "second compound 1 µM, first compound 0.316 µM", "value": 8.18, "unit": "%"}, {"measurement": "viability, T/C", "setting": "second compound 1 µM, first compound 1 µM", "value": 5.06, "unit": "%"}, {"measurement": "viability, T/C", "setting": "second compound 1 µM, first compound 3.16 µM", "value": 6.45, "unit": "%"}, {"measurement": "viability, T/C", "setting": "second compound 1 µM, first compound 10 µM", "value": 4.66, "unit": "%"}, {"measurement": "viability, T/C", "setting": "second compound 3.16 µM, first compound 0.0316 µM", "value": 8.78, "unit": "%"}, {"measurement": "viability, T/C", "setting": "second compound 3.16 µM, first compound 0.1 µM", "value": 9.76, "unit": "%"}, {"measurement": "viability, T/C", "setting": "second compound 3.16 µM, first compound 0.316 µM", "value": 7.42, "unit": "%"}, {"measurement": "viability, T/C", "setting": "second compound 3.16 µM, first compound 1 µM", "value": 6.36, "unit": "%"}, {"measurement": "viability, T/C", "setting": "second compound 3.16 µM, first compound 3.16 µM", "value": 5.23, "unit": "%"}, {"measurement": "viability, T/C", "setting": "second compound 3.16 µM, first compound 10 µM", "value": 4.36, "unit": "%"}, {"measurement": "viability, T/C", "setting": "second compound 10 µM, first compound 0.0316 µM", "value": 7.27, "unit": "%"}, {"measurement": "viability, T/C", "setting": "second compound 10 µM, first compound 0.1 µM", "value": 4.82, "unit": "%"}, {"measurement": "viability, T/C", "setting": "second compound 10 µM, first compound 0.316 µM", "value": 6.12, "unit": "%"}, {"measurement": "viability, T/C", "setting": "second compound 10 µM, first compound 1 µM", "value": 4.54, "unit": "%"}, {"measurement": "viability, T/C", "setting": "second compound 10 µM, first compound 3.16 µM", "value": 4.2, "unit": "%"}, {"measurement": "viability, T/C", "setting": "second compound 10 µM, first compound 10 µM", "value": 1.83, "unit": "%"}]}
